Target: T1, EGFR L858R-T790M (Homo sapiens, UniProt P00533, L858R/T790M)
T1 construct: NCI-H1975 (harboring EGFR heterozygous L858R-T790M mutations); host or cells: NCI-H1975
Assay: EGFR degradation, Total EGFR (L858R-specific) HTRF, NCI-H1975
Type: cell-based
Settings: Table 9A; NCI-H1975 cells, 6 hours, Total EGFR HTRF; read-out: H1975 EGFR DC50
Method in brief: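 FRET signal from HTRF kits measured phospho-EGFR at pY1068 or total EGFR after 6 h treatment at 37 °C. Compounds ran as 11-point half-log dilutions from 10 μM in duplicate, in cells in phenol red-free RPMI with 10% FBS. Concentrations giving 50% inhibition or degradation were reported as IC50 or DC50.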

T1 sequence (P00533 25-1210 T790M/L858R): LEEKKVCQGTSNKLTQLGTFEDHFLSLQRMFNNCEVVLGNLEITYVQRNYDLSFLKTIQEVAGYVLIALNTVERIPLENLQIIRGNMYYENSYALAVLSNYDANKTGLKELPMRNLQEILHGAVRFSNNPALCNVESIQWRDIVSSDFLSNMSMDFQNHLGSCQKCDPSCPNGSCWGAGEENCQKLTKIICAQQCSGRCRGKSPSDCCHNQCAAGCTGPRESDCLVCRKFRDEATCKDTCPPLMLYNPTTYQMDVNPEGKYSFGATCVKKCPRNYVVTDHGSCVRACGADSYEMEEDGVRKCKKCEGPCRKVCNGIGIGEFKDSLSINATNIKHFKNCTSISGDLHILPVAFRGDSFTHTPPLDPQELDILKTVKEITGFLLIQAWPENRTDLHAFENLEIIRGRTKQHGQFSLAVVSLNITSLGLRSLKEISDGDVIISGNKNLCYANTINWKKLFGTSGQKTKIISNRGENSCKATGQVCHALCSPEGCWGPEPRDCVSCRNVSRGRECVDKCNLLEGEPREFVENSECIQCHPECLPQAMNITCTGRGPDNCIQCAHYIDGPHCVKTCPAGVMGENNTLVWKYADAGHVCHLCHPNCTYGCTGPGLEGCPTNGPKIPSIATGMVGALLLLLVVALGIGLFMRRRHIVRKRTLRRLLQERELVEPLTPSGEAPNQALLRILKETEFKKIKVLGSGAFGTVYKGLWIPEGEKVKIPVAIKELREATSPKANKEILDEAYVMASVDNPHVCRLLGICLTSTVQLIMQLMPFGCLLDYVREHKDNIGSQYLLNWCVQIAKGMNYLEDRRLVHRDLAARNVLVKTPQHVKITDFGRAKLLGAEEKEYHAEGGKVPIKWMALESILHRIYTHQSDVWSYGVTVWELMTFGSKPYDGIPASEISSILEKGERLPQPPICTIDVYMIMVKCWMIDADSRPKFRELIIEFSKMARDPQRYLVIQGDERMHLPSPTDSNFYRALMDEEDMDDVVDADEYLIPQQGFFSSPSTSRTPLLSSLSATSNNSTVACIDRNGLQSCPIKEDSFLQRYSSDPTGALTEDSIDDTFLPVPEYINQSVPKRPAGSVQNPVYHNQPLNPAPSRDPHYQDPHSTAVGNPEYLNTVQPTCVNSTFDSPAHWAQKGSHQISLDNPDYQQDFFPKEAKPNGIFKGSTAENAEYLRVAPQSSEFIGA

SMILES | DC50 [nM]
O=C1CC[C@H](Nc2ccc(C3CCN(CC(=O)N4CC[C@@H](Oc5ccc(-c6cc(F)c7c(c6)C(=O)N(C(C(=O)Nc6nccs6)c6ncn8c6CCC8)C7)cc5)C4)CC3)cc2)C(=O)N1 (stereo partly drawn) [Compound 41, 2-(6,7-dihydro-5H-pyrrolo[1,2-c]imidazol-1-yl)-2-[6-[4-[(3R)-1-[2-[4-[4-[[(3S)-2,6-dioxo-3-piperidyl]amino]phenyl]-1-piperidyl]acetyl]pyrrolidin-3-yl]oxyphenyl]-4-fluoro-1-oxo-isoindolin-2-yl]-N-thiazol-2-yl-acetamide] | < 50
O=C1CCC(Oc2ccc(N3CCN(CC(=O)N4CCC(NC(=O)c5ccc(C#Cc6cc(F)c7c(c6)C(=O)N(C(C(=O)Nc6nccs6)c6ncn8c6CCC8)C7)cn5)CC4)CC3)cc2)C(=O)N1 (stereo not drawn) [Compound 51, 5-[2-[2-[1-(6,7-dihydro-5H-pyrrolo[1,2-c]imidazol-1-yl)-2-oxo-2-(thiazol-2-ylamino)ethyl]-7-fluoro-3-oxo-isoindolin-5-yl]ethynyl]-N-[1-[2-[4-[4-[(2,6-dioxo-3-piperidyl)oxy]phenyl]piperazin-1-yl]acetyl]-4-piperidyl]pyridine-2-carboxamide] | < 50
Cn1nc(N2CCC(=O)NC2=O)c2ccc(C3CCN(CC(=O)N4CC5(C4)CN(c4ccc(-c6cc(F)c7c(c6)C(=O)N(C(C(=O)Nc6ccccn6)c6ncn8c6CCC8)C7)cc4)C5)CC3)cc21 (stereo not drawn) [Compound 54, 2-(6,7-dihydro-5H-pyrrolo[1,2-c]imidazol-1-yl)-2-[6-[4-[2-[2-[4-[3-(2,4-dioxohexahydropyrimidin-1-yl)-1-methyl-indazol-6-yl]-1-piperidyl]acetyl]-2,6-diazaspiro[3.3]heptan-6-yl]phenyl]-4-fluoro-1-oxo-isoindolin-2-yl]-N-(2-pyridyl)acetamide] | < 50
O=C1CC[C@@H](Nc2ccc(C3CCN(CC(=O)N4CCC(c5ccc(-c6cc(F)c7c(c6)C(=O)N(C(C(=O)Nc6nccs6)c6ncn8c6CCC8)C7)cc5)CC4)CC3)cc2)C(=O)N1 (stereo partly drawn) [Compound 23, 2-(6,7-dihydro-5H-pyrrolo[1,2-c]imidazol-1-yl)-2-(6-(4-(1-(2-(4-(4-(((R)-2,6-dioxopiperidin-3-yl)amino)phenyl)piperidin-1-yl)acetyl)piperidin-4-yl)phenyl)-4-fluoro-1-oxoisoindolin-2-yl)-N-(thiazol-2-yl)acetamide] | < 50

Same assay, conditions: Table 9B; NCI-H1975 cells, 6 hours, Total EGFR HTRF; read-out: H1975 EGFR DC50

SMILES | DC50 [nM]
O=C1CCC(Nc2cc(F)c(N3CCC(O)(CC(=O)N4CC5(CCN(c6ccc(-c7cc(F)c8c(c7)C(=O)N(C(C(=O)Nc7nccs7)c7ncn9c7CCC9)C8)cc6)CC5)C4)CC3)c(F)c2)C(=O)N1 (single isomer, unassigned; isomer 1) [Compound 134, 2-(6,7-dihydro-5H-pyrrolo[1,2-c]imidazol-1-yl)-2-[6-[4-[2-[2-[1-[4-[[2,6-dioxo-3-piperidyl]amino]-2,6-difluoro-phenyl]-4-hydroxy-4-piperidyl]acetyl]-2,7-diazaspiro[3.5]nonan-7-yl]phenyl]-4-fluoro-1-oxo-isoindolin-2-yl]-N-thiazol-2-yl-acetamide, isomer 1] | < 50
O=C1CCC(Nc2cnc(N3CCC(O)(CC(=O)N4CC5(C4)CN(c4ccc(-c6cc(F)c7c(c6)C(=O)N(C(C(=O)Nc6nccs6)c6ncn8c6CCC8)C7)cc4)C5)CC3)c(F)c2)C(=O)N1 (stereo not drawn) [Compound 90, 2-(6,7-dihydro-5H-pyrrolo[1,2-c]imidazol-1-yl)-2-(6-(4-(6-(2-(1-(5-((2,6-dioxopiperidin-3-yl)amino)-3-fluoropyridin-2-yl)-4-hydroxypiperidin-4-yl)acetyl)-2,6-diazaspiro[3.3]heptan-2-yl)phenyl)-4-fluoro-1-oxoisoindolin-2-yl)-N-(thiazol-2-yl)acetamide] | < 50
O=C1CCC(Nc2ccc(N3CCCC(O)(CC(=O)N4CC5(C4)CN(c4ccc(-c6cc(F)c7c(c6)C(=O)N(C(C(=O)Nc6nccs6)c6ncn8c6CCC8)C7)cc4)C5)CC3)c(F)c2)C(=O)N1 (single isomer, unassigned; isomer a2) [Compound 165, 2-(6,7-dihydro-5H-pyrrolo[1,2-c]imidazol-1-yl)-2-[6-[4-[2-[2-[1-[4-[[2,6-dioxo-3-piperidyl]amino]-2-fluoro-phenyl]-4-hydroxy-azepan-4-yl]acetyl]-2,6-diazaspiro[3.3]heptan-6-yl]phenyl]-4-fluoro-1-oxo-isoindolin-2-yl]-N-thiazol-2-yl-acetamide, isomer A2] | < 50
O=C1CCN(c2ccc(N3CCC(O)(CC(=O)N4CC5(CCN(c6ccc(-c7cc(F)c8c(c7)C(=O)N(C(C(=O)Nc7nccs7)c7ncn9c7CCC9)C8)cc6)CC5)C4)CC3)c(Cl)c2)C(=O)N1 (stereo not drawn) [Compound 172, 2-[6-[4-[2-[2-[1-[2-chloro-4-(2,4-dioxohexahydropyrimidin-1-yl)phenyl]-4-hydroxy-4-piperidyl]acetyl]-2,7-diazaspiro[3.5]nonan-7-yl]phenyl]-4-fluoro-1-oxo-isoindolin-2-yl]-2-(6,7-dihydro-5H-pyrrolo[1,2-c]imidazol-1-yl)-N-thiazol-2-yl-acetamide] | < 50
O=C1CC[C@H](Nc2ccc(N3CCC(O)(CC(=O)N4CC5(C4)CN(c4ccc(-c6cc(F)c7c(c6)C(=O)N(C(C(=O)Nc6nccs6)c6ncn8c6CCC8)C7)cn4)C5)CC3)c(F)c2)C(=O)N1 (stereo partly drawn) [Compound 110, 2-(6,7-dihydro-5H-pyrrolo[1,2-c]imidazol-1-yl)-2-(6-(6-(6-(2-(1-(4-(((S)-2,6-dioxopiperidin-3-yl)amino)-2-fluorophenyl)-4-hydroxypiperidin-4-yl)acetyl)-2,6-diazaspiro[3.3]heptan-2-yl)pyridin-3-yl)-4-fluoro-1-oxoisoindolin-2-yl)-N-(thiazol-2-yl)acetamide] | < 50
O=C1CCN(c2ccc(N3CCC(O)(CC(=O)N4CCC5(CC4)CN(c4ccc(-c6cc(F)c7c(c6)C(=O)N(C(C(=O)Nc6nccs6)c6ncn8c6CCC8)C7)cc4)C5)CC3)c(Cl)c2)C(=O)N1 (stereo not drawn) [Compound 170, 2-[6-[4-[7-[2-[1-[2-chloro-4-(2,4-dioxohexahydropyrimidin-1-yl)phenyl]-4-hydroxy-4-piperidyl]acetyl]-2,7-diazaspiro[3.5]nonan-2-yl]phenyl]-4-fluoro-1-oxo-isoindolin-2-yl]-2-(6,7-dihydro-5H-pyrrolo[1,2-c]imidazol-1-yl)-N-thiazol-2-yl-acetamide] | < 50
O=C1CCC(Nc2ccc(N3CCC(O)(CC(=O)N4CC5(C4)CN(c4ccc(-c6cc(F)c7c(c6)C(=O)N(C(C(=O)Nc6nccs6)c6ncn8c6CCC8)C7)cc4)C5)CC3)c(F)c2)C(=O)N1 (stereo not drawn) [Compound 89, 2-(6,7-dihydro-5H-pyrrolo[1,2-c]imidazol-1-yl)-2-(6-(4-(6-(2-(1-(4-((2,6-dioxopiperidin-3-yl)amino)-2-fluorophenyl)-4-hydroxypiperidin-4-yl)acetyl)-2,6-diazaspiro[3.3]heptan-2-yl)phenyl)-4-fluoro-1-oxoisoindolin-2-yl)-N-(thiazol-2-yl)acetamide] | < 50
O=C1CC[C@H](Nc2ccc(N3CCC(O)(CC(=O)N4CC5(C4)CN(c4ccc(-c6cc(F)c7cn(C(C(=O)Nc8nccs8)c8ncn9c8CCC9)nc7c6)cc4)C5)CC3)c(F)c2)C(=O)N1 (stereo partly drawn) [Compound 77, 2-(6,7-dihydro-5H-pyrrolo[1,2-c]imidazol-1-yl)-2-[6-[4-[2-[2-[1-[4-[[(3S)-2,6-dioxo-3-piperidyl]amino]-2-fluoro-phenyl]-4-hydroxy-4-piperidyl]acetyl]-2,6-diazaspiro[3.3]heptan-6-yl]phenyl]-4-fluoro-indazol-2-yl]-N-thiazol-2-yl-acetamide] | < 50
O=C1CCC(Nc2ccc(N3CCC(O)(CC(=O)N4CC5(C4)CN(c4ccc(-c6cc(F)c7c(c6)C(=O)N(C(C(=O)Nc6nccs6)c6ncn8c6CCC8)C7)cc4)C5)CC3)c(Cl)c2)C(=O)N1 (stereo not drawn) [Compound 117, 2-[6-[4-[2-[2-[1-[2-chloro-4-[(2,6-dioxo-3-piperidyl)amino]phenyl]-4-hydroxy-4-piperidyl]acetyl]-2,6-diazaspiro[3.3]heptan-6-yl]phenyl]-4-fluoro-1-oxo-isoindolin-2-yl]-2-(6,7-dihydro-5H-pyrrolo[1,2-c]imidazol-1-yl)-N-thiazol-2-yl-acetamide] | < 50
O=C1CCC(Nc2cnc(N3CCC(O)(CC(=O)N4CC5(C4)CN(c4ccc(-c6cc(F)c7c(c6)C(=O)N(C(C(=O)Nc6nccs6)c6ncn8c6CCC8)C7)cc4)C5)CC3)c(F)c2)C(=O)N1 (single isomer, unassigned; isomer 1) [Compound 139, 2-(6,7-dihydro-5H-pyrrolo[1,2-c]imidazol-1-yl)-2-[6-[4-[2-[2-[1-[5-[[2,6-dioxo-3-piperidyl]amino]-3-fluoro-2-pyridyl]-4-hydroxy-4-piperidyl]acetyl]-2,6-diazaspiro[3.3]heptan-6-yl]phenyl]-4-fluoro-1-oxo-isoindolin-2-yl]-N-thiazol-2-yl-acetamide, isomer 1] | < 50
O=C1CC[C@@H](Nc2ccc(N3CCC(O)(CC(=O)N4CC5(C4)CN(c4ccc(-c6cc(F)c7c(c6)C(=O)N(C(C(=O)Nc6nccs6)c6ncn8c6CCC8)C7)cn4)C5)CC3)c(F)c2)C(=O)N1 (stereo partly drawn) [Compound 111, 2-(6,7-dihydro-5H-pyrrolo[1,2-c]imidazol-1-yl)-2-(6-(6-(6-(2-(1-(4-(((R)-2,6-dioxopiperidin-3-yl)amino)-2-fluorophenyl)-4-hydroxypiperidin-4-yl)acetyl)-2,6-diazaspiro[3.3]heptan-2-yl)pyridin-3-yl)-4-fluoro-1-oxoisoindolin-2-yl)-N-(thiazol-2-yl)acetamide] | < 50
